Test results: patent publication US9079913B2, “Spiro-oxindole MDM2 antagonists” (The Regents of the University of Michigan, priority 2009, dated 2015)
pIC50: −log10 of the molar value. “Also recorded” adds a separate entry of the source. Like-named read-outs stand apart in the source and are kept apart here.

Key:
[1] = tested on: Isogenic HCT-116 colon cancer cell lines; assay: cells; format: cell-based; settings: Homo sapiens, cell growth;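 further: cells grown in 96-well plates in McCoy's 5A medium with 10% FBS, exposed to compound for 4 days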
Protocol: Cells were seeded in 96-well flat bottom cell culture plates at a density of 2−3×10^3 cells/well with compounds and incubated for 4 days.

[2] = tested on: cancer cell lines with wild-type p53 / mutated or deleted p53 (ATCC); assay: Cell growth assay (WST-8), other cancer cell lines; format: cell-based; settings: Homo sapiens
[3] = In vitro microsomal stability, rat; format: in vitro ADME
[4] = In vitro microsomal stability, human; format: in vitro ADME
[5] = Pharmacokinetic studies in rats; format: in vivo, rat
Protocol: Pharmacokinetic studies on MDM2 inhibitors were carried out in rat. For comparison, the MDM2 inhibitor, AT-219, was also studied.

SJSA-1 xenograft tumors = assay: In vivo efficacy, SJSA-1 xenograft model (tumor volume); parameters: species or system C.B-17 SCID mice; settings: for % Tumor Growth Inhib. T/C Control 750 mm^3 D29: Exp. No. 3, SJSA-1 xenograft
Protocol: SJSA-1 tumor cells were harvested with Trypsin (0.05%)-EDTA (0.53 mM) (GIBCO™, Invitrogen Corp.), growth medium added and cells placed on ice. A cell sample was mixed 1:1 with Trypan Blue (GIBCO™, Invitrogen Corp.) and counted on a hemocytometer to determine the number of live/dead cells. Cells were washed once with 1×PBS (GIBCO™, Invitrogen Corp.) and resuspended in PBS. For Matrigel injections, after washing in PBS, cells are resuspended in an ice cold mixture of 1:1 PBS and Matrigel (BD Biosciences, Invitrogen Corp.) for a final Matrigel protein concentration of 5 mg/ml. SJSA-1 tumors were inoculated into C.B-17 SCID mice at 5×10^6 cells in 0.1 ml with Matrigel. Cells were injected s.c. into the flank region of each mouse using a 27 gauge needle.
The size of tumors growing in the mice was measured in two dimensions using calipers. Tumor volume (mm^3)=(A×B2)/2 where A and B are the tumor length and width (in mm), respectively. During treatment, tumor volume and body weight was measured three times a week. […] Mice were kept for an additional 60 days for further observation of tumor growth and toxicity.

[6] = Animal weight in SJSA-1 xenograft studies; format: in vivo, C.B-17 SCID mice; settings: SJSA-1 xenograft mice
Protocol: The size of tumors growing in the mice was measured in two dimensions using calipers. Tumor volume (mm^3)=(A×B2)/2 where A and B are the tumor length and width (in mm), respectively. During treatment, tumor volume and body weight was measured three times a week. After the treatment was stopped, tumor volume (FIGS. 7, 9, 11, and 36) and body weight (FIGS. 8, 10, 12, and 37) was measured at least once a week. Mice were kept for an additional 60 days for further observation of tumor growth and toxicity.
Before treatment began, tumors were allowed to grow to 60-140 mm^3 in volume, at which point the blood vessel supplies to the tumor should have been established. Mice with tumors within acceptable size range were randomized into treatment groups of 8 mice for experimental compounds and 10 mice for the Control group. Experimental compounds were given orally, once per day for 2-3 weeks. The Control group received vehicle alone (10% PEG 400: 3% Cremophor: 87% PBS).

CC(C)(C)C[C@H]1N[C@@H](C(=O)NC2CCC(O)CC2)[C@H](c2cccc(Cl)c2F)[C@@]12C(=O)Nc1cc(Cl)ccc12 (stereo partly shown) [MI-773]
pIC50 ([1]; HCT-116, read-out: HCT-116 (p53-/-) IC50, Table 19A, HCT-116 p53-/-): < 5.00 | pIC50 ([1]; HCT-116, read-out: HCT-116 (p53 wild-type) IC50, Table 19A, HCT-116 p53 wild-type): > 6.00 | pIC50 ([2]; LNCaP, read-out: LNCAP (p53 wild-type) IC50): > 6.00 | pIC50 ([2]; PC-3, read-out: PC-3 (deleted p53) IC50): < 5.00 | pIC50 ([2]; SJSA-1, read-out: SJSA-1 (p53 wild-type) IC50): > 6.00 | % of compound remaining when incubated in rat liver microsomes with NADPH ([3]; 0 min): 100.00% | % of compound remaining when incubated in rat liver microsomes with NADPH ([3]; 5 min): 81.32% | % of compound remaining when incubated in rat liver microsomes with NADPH ([3]; 10 min): 60.00% | % of compound remaining when incubated in rat liver microsomes with NADPH ([3]; 15 min): 56.58% | % of compound remaining when incubated in rat liver microsomes with NADPH ([3]; 30 min): 46.11% | % of compound remaining when incubated in rat liver microsomes with NADPH ([3]; 45 min): 41.18% | % of compound remaining when incubated in rat liver microsomes with NADPH ([3]; 60 min): 33.26% | half-life ([3]; rat, liver microsomes, rat liver microsomes with NADPH): 17.3 min | microsomal stability (in words) ([4]; human liver microsomes): more stable than MI-219 | % of compound remaining when incubated in human liver microsomes with NADPH ([4]; human liver microsomes, 0 min): 100.00% | % of compound remaining when incubated in human liver microsomes with NADPH ([4]; human liver microsomes, 5 min): 83.70% | % of compound remaining when incubated in human liver microsomes with NADPH ([4]; human liver microsomes, 10 min): 82.97% | % of compound remaining when incubated in human liver microsomes with NADPH ([4]; human liver microsomes, 15 min): 69.38% | % of compound remaining when incubated in human liver microsomes with NADPH ([4]; human liver microsomes, 30 min): 52.36% | % of compound remaining when incubated in human liver microsomes with NADPH ([4]; human liver microsomes, 45 min): 42.57% | % of compound remaining when incubated in human liver microsomes with NADPH ([4]; human liver microsomes, 60 min): 28.77% | half-life ([4]; human, liver microsomes, human liver microsomes with NADPH): 31.5 min | oral bioavailability / oral pharmacokinetics in rats (in words) ([5]; oral dosing, rats): good oral bioavailability; also recorded: high oral bioavailability | CLz ([5]; rat, IV, 5 mg/kg, plasma, parent compound): 16.7 mL/min/kg | Vd ([5]; rat, plasma, iv, 5 mg/kg, rat, IV, 5 mg/kg, plasma, parent compound, read-out: Vz): 3 L/kg | pharmacokinetic profile (in words) ([5]; rats, intravenous and oral routes of dosing): improved PK parameters over MI-219 | % Tumor Growth Inhib. T/C Control 750 mm^3 D24 (SJSA-1 xenograft tumors; Exp. No. 2, SJSA-1 xenograft, PO 100 mg/kg, D24): 3.2% | % Tumor Growth Inhib. T/C Control 750 mm^3 D29 (SJSA-1 xenograft tumors; PO 30 mg/kg): 24.3% | % Tumor Growth Inhib. T/C Control 750 mm^3 D29 (SJSA-1 xenograft tumors; PO 100 mg/kg): 1.2% | in vivo efficacy (in words) (SJSA-1 xenograft tumors; SJSA-1 xenograft, oral once per day 2-3 weeks): good in vivo efficacy | weight loss in the animals (in words) [6]: without significant weight loss
